Laboratory results as given in patent US20220168295A1, “RIMEGEPANT FOR CGRP RELATED DISORDERS” (Biohaven Pharmaceutical Ireland DAC, priority 2018, published 2022).

What was measured:
Assay type in all cases: in vivo, human
[1] = Pooled adverse event and LFT safety data, Studies 301, 302 and 303; design: ALT or AST >10x ULN / ALT or AST >20x ULN: unit not given here; conditions: pooled Studies 301, 302 and 303, n = 1,771
patients with migraine = assay: Study 201 (BHV3000-201) open label long-term safety study, rimegepant 75 mg oral tablet, acute treatment of migraine; conditions: for >= 20.0% decrease in migraines (headache days) per month, subjects n (%) / >= 25.0% decrease in migraines (headache days) per month, subjects n (%) / >= 30.0% decrease in migraines (headache days) per month, subjects n (%) / >= 35.0% decrease in migraines (headache days) per month, subjects n (%) / >= 40.0% decrease in migraines (headache days) per month, subjects n (%) / >= 45.0% decrease in migraines (headache days) per month, subjects n (%) / >= 50.0% decrease in migraines (headache days) per month, subjects n (%): Study 201, Overall, n 1731
Experimental: Clinical Trial-BHV3000-201: Open Label Safety Study in Acute Treatment of Migraine (ClinicalTrials.gov Identifier: NCT 03266588) A phase 2/3 clinical study is conducted with about 2000 participants, as follows. The purpose of this study is to evaluate safety and tolerability of BHV3000 (rimegepant). • Study Type: Interventional (Clinical Trial) • Estimated Enrollment: 2000 participants • Intervention Model: Single Group Assignment • Masking: None (Open Label) • Primary Purpose: Treatment • Official Title: A Multicenter, Open Label Long-Term Safety Study of BHV3000 in the Acute Treatment of Migraine • Actual Study Start Date: Aug. 30, 2017 • Estimated Primary Completion Date: July 2019 • Estimated Study Completion Date: July 2019 [table] 1. To assess the safety and tolerability of rimegepant (BHV-3000) by measuring the frequency and severity of adverse events and discontinuations due to adverse events [Time Frame: 52 weeks] Number of subjects with treatment-emergent adverse events as assessed through laboratory tests, ECGs, physical exam findings (safety and tolerability) 1. ALT or […] with total bilirubin >2×ULN [Time Frame: 52 weeks] elevated liver function tests 2. hepatic related adverse events and hepatic related adverse events that lead to discontinuation [Time Frame: 52 weeks] adverse events related to liver

[2] = system: subjects with Acute Migraines; assay: Study 301 (BHV3000-301) Phase 3 placebo-controlled trial, rimegepant 75 mg tablet, acute treatment of migraine: efficacy and safety
Experimental: Clinical Trial—BHV3000-301: Phase 3: Double-Blind, Randomized, Placebo-Controlled, Safety and Efficacy Trial of BHV-3000 (Rimegepant) for the Acute Treatment of Migraine (ClinicalTrials.gov Identifier: NCT03235479). A phase 3 clinical study was conducted with 1490 participants, as follows. The purpose of this study was to compare the efficacy of BHV-3000 (rimegepant) versus placebo in subjects with Acute Migraines • Study Type: Interventional (Clinical Trial) • Actual Enrollment: 1490 participants • Allocation: Randomized • Intervention Model: Parallel Assignment • Intervention Model Description: Double-blind to Sponsor, Investigator and Subject Randomized Controlled Trial • Masking: Triple (Participant, Care Provider, Investigator) • Masking Description: Double-blind to Sponsor, Investigator and Subject • Primary Purpose: Treatment • Official Title: BHV3000-301: Phase 3: Double-Blind, Randomized, Placebo-Controlled, Safety and Efficacy Trial of BHV-3000 (Rimegepant) for the Acute Treatment of Migraine [table] • 1. Pain freedom of rimegepant (75 mg tablet) compared with placebo in the acute treatment of migraine will be measured using the number of evaluable subjects that report no pain at 2 hours post-dose. [Time Frame: Two hours post dose] • Pain will be measured on a 4 point Likert scale (0=none, 1=mild, 2=moderate, 3=severe) • 2. Freedom from the most bothersome symptom (MBS) of rimegepant (75 mg tablet) compared with placebo will be measured using the number of evaluable subjects that report the absence of their MBS at 2 hours post-dose. [Time Frame: Two hours post dose] • The MBS (nausea, phonophobia or photophobia) will measured using a binary scale (0=absent, 1=present). • 1. […] [Time Frame: 2 hours −24 hours post-dose] • Sustained Pain Freedom as measured by a 4 point numeric rating scale (None, Mild, Moderate, Severe) • 2. The difference between rimegepant (75 mg tablet) compared to placebo by tabulating the absence of photophobia at 2 hours post-dose in the subset of subjects that reported the presence of photophobia at headache baseline. [Time Frame: 2 hours post-dose] • Photophobia • 3. To evaluate rimegepant (75 mg tablet) compared to placebo by tabulating the number of subjects that report the absence of phonophobia at 2 hours post-dose in the subset of subjects that reported the presence of phonophobia at headache baseline. [Time Frame: 2 hours post-dose] • Phonophobia • 4. To measure the difference between rimegepant (75 mg tablet) compared to placebo on Pain Relief, at 2 hours post-dose, for those that report a pain level of moderate or severe at baseline and then report a pain level of none or mild. [Time Frame: 2 hours post-dose] • Pain Relief as measured by a 4 point numeric rating scale (None, Mild, Moderate, Severe) • 5. Freedom from Nausea by tabulating the number of subjects that report the absence of nausea at 2 hours post-dose in the subset of subjects that reported the presence of nausea at headache baseline. [Time Frame: 2 hours post-dose] • Freedom from Nausea • 6. The difference between rimegepant (75 mg tablet) compared to placebo on the probability of requiring rescue medication using the number of subjects that take rescue medication within […] administration of study medication (BHV3000 or placebo). [Time Frame: up to 24 hours post-dose] • Requiring Rescue Medication • 7. […] [Time Frame: 2 hours-24 hours post-dose] • Sustained Pain Freedom • 8. […] [Time Frame: 2 hours-24 hours post-dose] • Sustained Pain Relief as measured by a 4 point numeric rating scale (None, Mild, Moderate, Severe) • 9. […] [Time Frame: 2 hours-48 hours post-dose] • Sustained Pain Relief as measured by a 4 point numeric rating scale (None, Mild, Moderate, Severe) • 10. To measure the difference between rimegepant (75 mg tablet) relative to placebo on the proportion of subjects able to function normally, at 2 hours, using the number of subjects that self-report as “normal” on the functional disability scale. […]

## N[C@@H]1c2cccnc2[C@H](OC(=O)N2CCC(n3c(=O)[nH]c4ncccc43)CC2)CC[C@H]1c1cccc(F)c1F [Rimegepant, [(5S,6S,9R)-5-amino-6-(2,3-difluorophenyl)-6,7,8,9-tetrahydro-5H-cyclohepta[b]pyridin-9-yl] 4-(2-oxo-3H-imidazo[4,5-b]pyridin-1-yl)piperidine-1-carboxylate]
[1]
  ALT or AST >3x ULN, n (%): 2 (0.1%) n (%)
  ALT or AST >10x ULN: 0
  ALT or AST >20x ULN: 0
  ALT or AST >ULN, n (%): 48 (2.7%) n (%)
[1]; AST elevation, not drug-related per investigator
  ALT or AST >5x ULN, n (%): 1 (0.06%) ^2 n (%)
Patients with migraine
  >= 20.0% decrease in migraines (headache days) per month, subjects n (%): 683 (39.5%) n (%)
  >= 25.0% decrease in migraines (headache days) per month, subjects n (%): 602 (34.8%) n (%)
  >= 30.0% decrease in migraines (headache days) per month, subjects n (%): 523 (30.2%) n (%)
  >= 35.0% decrease in migraines (headache days) per month, subjects n (%): 442 (25.5%) n (%)
  >= 40.0% decrease in migraines (headache days) per month, subjects n (%): 362 (20.9%) n (%)
  >= 45.0% decrease in migraines (headache days) per month, subjects n (%): 287 (16.6%) n (%)
  >= 50.0% decrease in migraines (headache days) per month, subjects n (%): 226 (13.1%) n (%)
Patients with migraine; listed as BHV-3000
  >= 20.0% decrease in migraines (headache days) per month, subjects n (%): 683 (39.5) n (%)
  >= 25.0% decrease in migraines (headache days) per month, subjects n (%): 602 (34.8) n (%)
  >= 30.0% decrease in migraines (headache days) per month, subjects n (%): 523 (30.2) n (%)
  >= 35.0% decrease in migraines (headache days) per month, subjects n (%): 442 (25.5) n (%)
  >= 40.0% decrease in migraines (headache days) per month, subjects n (%): 362 (20.9) n (%)
  >= 45.0% decrease in migraines (headache days) per month, subjects n (%): 287 (16.6) n (%)
  >= 50.0% decrease in migraines (headache days) per month, subjects n (%): 226 (13.1) n (%)
Patients with migraine; Study 201 interim analysis, 75 mg up to once daily, long-term
  Incidence of serum ALT or AST >3xULN: 1.0%
Patients with migraine; Study 201 interim analysis, including near-daily dosing subset
  Liver safety signal: no liver safety signal detected
Patients with migraine; Study 201 interim analysis, independent liver panel
  Liver cases assessed as probably related to study drug: no liver cases
[2]
  SAEs related to the study drug: No SAE was determined to be related to the study drug
  Transaminase level >5 times ULN, subjects: no subject
[2]; 4/546
  Adverse event dizziness, incidence: 0.7%
[2]; 5/546
  Adverse event nausea, incidence: 0.9%
[2]; 11/546
  Serum ALT or AST levels greater than ULN, subjects: 2.0%
[2]; P<0.0001
  Proportion of patients achieving normal function at 2 hours (functional disability) versus placebo: greater proportion
[2]; n=2, both not dosed before onset
  Serious AEs (SAEs), subjects: 0.4%
[2]; one subject
  Transaminase level >3 times ULN, subjects: 0.2%
